From patent US12138256B2, “Treatment of cardiopulmonary disorders” (Bayer Aktiengesellschaft, priority 2021, dated 2024)

Test system: sGC (cGMP)
Assay: Phase I, healthy male subjects, 7 days once daily inhalation: cGMP in blood samples (C-4.1)
Assay type: in vivo, human
Settings: for time of cGMP peak after administration: first inhalation; for mean peak cGMP: after repeated dosing for 7 days; for peak mean±SD cGMP: first profile day
Protocol: Healthy White male subjects, aged 18 to 45 years and with a body mass index (BMI) above/equal 18.5 and below/equal 29.9 kg/m2 were treated in a clinical pharmacological phase I study on seven days with inhaled once daily doses of 480 μg or 1000 μg or 2000 μg (2 capsules of 1000 μg) (nominal dose) of dry powder formulations of example 2 or Placebo. The subjects inhaled the drug powder from capsules (see under D-1, e.g. tables 22 and 23) inserted into a handheld inhalation device by one deep inhalative breath. The dry powder formulation of the drug is dispersed into the airstream and fine particles are transported into the deep parts of the lung where it is intended to cause a vasodilation of the blood vessels in PH patients for a substantial reduction of increased blood pressure in the central pulmonary blood vessels in PAH patients or other subtypes of PH. This effect cannot be shown in subjects with healthy lungs. In addition inhaled drug causes a dilation of the bronchial airways and thus also improves disease states of lung diseases in PH patients with pathological bronchoconstriction. This effect was measured via bodyplethysmography as reduction of Specific Airway Resistance in healthy subjects. After the deep inhalative breath the subjects hold breath for 2 seconds, so that the dry powder drug condenses from the airstream onto the surface of the deeper lung areas where it is deposited close to its site of intended pharmacological action. The drug dissolutes over the day and equilibrates the lung via lining fluid.
Drug activity in healthy men was controlled in the healthy subjects by analysing blood samples for cGMP, the immediate product of sGC pharmacological activation prior after the first and after the last drug inhalation of the 7 days treatment in comparison to measurements on the pretreatment day for all doses.
This prolonged activity in comparison to systemic drug concentration is caused by the mode of administration as inhaled dry powder, that deposits drug in the deeper part of the lung leading to an active drug concentration over 24 h after a once daily inhalation.
At 10 days after the first treatment, mean cGMP concentrations had returned close to the concentration observed at the pre-dosing day.

O=C(O)c1ccc(CCN(CCc2ccccc2OCc2ccc(-c3ccc(C(F)(F)F)cc3)cc2Cl)[C@H]2CCCc3nc(C(=O)O)ccc32)cc1 [example 2, (5S)-{[2-(4-Carboxyphenyl)ethyl][2-(2-{[3-chloro-4′-(trifluoromethyl)biphenyl-4-yl]methoxy}phenyl)-ethyl]amino}-5,6,7,8-tetrahydroquinoline-2-carboxylic acid]
cGMP, mean ± SD (1000 μg, 5 D 00 H 00 M (trough)): 8.50 ± 2.13 nmol/L
cGMP, mean ± SD (1000 μg, 6 D 00 H 00 M (trough)): 9.23 ± 2.12 nmol/L
cGMP, mean ± SD (1000 μg, 7 D 00 H 00 M (trough)): 9.66 ± 2.30 nmol/L
cGMP, mean ± SD (1000 μg, 7 D 02 H 00 M): 11.84 ± 2.18 nmol/L
cGMP, mean ± SD (1000 μg, 7 D 04 H 00 M): 15.76 ± 2.29 nmol/L
cGMP, mean ± SD (1000 μg, 7 D 06 H 00 M): 16.70 ± 2.96 nmol/L
cGMP, mean ± SD (1000 μg, 7 D 08 H 00 M): 15.91 ± 3.86 nmol/L
cGMP, mean ± SD (1000 μg, 7 D 12 H 00 M): 14.10 ± 4.55 nmol/L
cGMP, mean ± SD (1000 μg, 7 D 15 H 00 M): 12.91 ± 3.72 nmol/L
cGMP, mean ± SD (1000 μg, 8 D 00 H 00 M): 9.38 ± 3.11 nmol/L
cGMP, mean ± SD (1000 μg, 8 D 12 H 00 M): 7.21 ± 2.24 nmol/L
cGMP, mean ± SD (1000 μg, 9 D 00 H 00 M): 6.29 ± 1.86 nmol/L
cGMP, mean ± SD (1000 μg, 9 D 12 H 00 M): 5.93 ± 1.39 nmol/L
cGMP, mean ± SD (1000 μg, 10 D 00 H 00 M): 6.33 ± 2.30 nmol/L
cGMP, mean ± SD (1000 μg, −0 D 09 H 00 M (baseline)): 4.18 ± 0.82 nmol/L
cyclic guanosine monophosphate changes from baseline (1000 μg, −0 D 09 H 00 M (pretreatment day)): -0.84 ± 2.04 nmol/L
cGMP, mean ± SD (1000 μg, −0 D 12 H 00 M (baseline)): 4.26 ± 0.99 nmol/L
cyclic guanosine monophosphate changes from baseline (1000 μg, −0 D 12 H 00 M (pretreatment day)): -0.77 ± 1.72 nmol/L
cGMP, mean ± SD (1000 μg, −0 D 16 H 00 M (baseline)): 4.59 ± 1.06 nmol/L
cyclic guanosine monophosphate changes from baseline (1000 μg, −0 D 16 H 00 M (pretreatment day)): -0.43 ± 1.49 nmol/L
cGMP, mean ± SD (1000 μg, −0 D 18 H 00 M (baseline)): 4.16 ± 0.92 nmol/L
cyclic guanosine monophosphate changes from baseline (1000 μg, −0 D 18 H 00 M (pretreatment day)): -0.87 ± 1.44 nmol/L
cGMP, mean ± SD (1000 μg, −0 D 20 H 00 M (baseline)): 4.78 ± 1.37 nmol/L
cyclic guanosine monophosphate changes from baseline (1000 μg, −0 D 20 H 00 M (pretreatment day)): -0.24 ± 1.75 nmol/L
cGMP, mean ± SD (1000 μg, −0 D 22 H 00 M (baseline)): 5.10 ± 1.46 nmol/L
cyclic guanosine monophosphate changes from baseline (1000 μg, −0 D 22 H 00 M (pretreatment day)): 0.08 ± 1.41 nmol/L
cGMP, mean ± SD (1000 μg, −1 D 02 H 00 M (baseline)): 5.02 ± 1.59 nmol/L
time of cGMP peak after administration (2000 μg dose): 8 h
cyclic guanosine monophosphate changes from baseline (2000 μg once daily inhaled, 0 D 02 H 00 M): 4.78 ± 1.35 nmol/L
cyclic guanosine monophosphate changes from baseline (2000 μg once daily inhaled, 0 D 04 H 00 M): 9.18 ± 2.50 nmol/L
cyclic guanosine monophosphate changes from baseline (2000 μg once daily inhaled, 0 D 06 H 00 M): 11.04 ± 3.21 nmol/L
cyclic guanosine monophosphate changes from baseline (2000 μg once daily inhaled, 0 D 08 H 00 M): 11.69 ± 2.78 nmol/L
cyclic guanosine monophosphate changes from baseline (2000 μg once daily inhaled, 0 D 12 H 00 M): 8.56 ± 2.19 nmol/L
cyclic guanosine monophosphate changes from baseline (2000 μg once daily inhaled, 0 D 15 H 00 M): 7.54 ± 2.32 nmol/L
cyclic guanosine monophosphate changes from baseline (2000 μg once daily inhaled, 1 D 00 H 00 M): 3.48 ± 0.90 nmol/L
cyclic guanosine monophosphate changes from baseline (2000 μg once daily inhaled, 2 D 00 H 00 M): 1.57 ± 0.86 nmol/L
cyclic guanosine monophosphate changes from baseline (2000 μg once daily inhaled, 3 D 00 H 00 M): 5.17 ± 1.51 nmol/L
cyclic guanosine monophosphate changes from baseline (2000 μg once daily inhaled, 4 D 00 H 00 M): 9.33 ± 2.55 nmol/L
cyclic guanosine monophosphate changes from baseline (2000 μg once daily inhaled, 5 D 00 H 00 M): 11.10 ± 3.49 nmol/L
cyclic guanosine monophosphate changes from baseline (2000 μg once daily inhaled, 6 D 00 H 00 M): 11.71 ± 2.66 nmol/L
cyclic guanosine monophosphate changes from baseline (2000 μg once daily inhaled, 7 D 00 H 00 M): 11.36 ± 3.37 nmol/L
cyclic guanosine monophosphate changes from baseline (2000 μg once daily inhaled, 7 D 02 H 00 M): 17.33 ± 4.18 nmol/L
cyclic guanosine monophosphate changes from baseline (2000 μg once daily inhaled, 7 D 04 H 00 M): 22.23 ± 4.75 nmol/L
cyclic guanosine monophosphate changes from baseline (2000 μg once daily inhaled, 7 D 06 H 00 M): 27.39 ± 6.93 nmol/L
cyclic guanosine monophosphate changes from baseline (2000 μg once daily inhaled, 7 D 08 H 00 M): 27.83 ± 7.77 nmol/L
cyclic guanosine monophosphate changes from baseline (2000 μg once daily inhaled, 7 D 12 H 00 M): 23.33 ± 5.53 nmol/L
cyclic guanosine monophosphate changes from baseline (2000 μg once daily inhaled, 7 D 15 H 00 M): 19.08 ± 4.95 nmol/L
cyclic guanosine monophosphate changes from baseline (2000 μg once daily inhaled, 8 D 00 H 00 M): 11.17 ± 3.69 nmol/L
cyclic guanosine monophosphate changes from baseline (2000 μg once daily inhaled, 8 D 12 H 00 M): 8.02 ± 2.45 nmol/L
cyclic guanosine monophosphate changes from baseline (2000 μg once daily inhaled, 9 D 00 H 00 M): 5.64 ± 1.36 nmol/L
cyclic guanosine monophosphate changes from baseline (2000 μg once daily inhaled, 9 D 12 H 00 M): 4.57 ± 2.15 nmol/L
cyclic guanosine monophosphate changes from baseline (2000 μg once daily inhaled, 10 D 00 H 00 M): 3.26 ± 1.07 nmol/L
cyclic guanosine monophosphate changes from baseline (2000 μg, 0 D 00 H 00 M): 0.68 ± 1.14 nmol/L
cGMP, mean ± SD (2000 μg, 0 D 00 H 00 M (baseline)): 4.83 ± 2.52 nmol/L
cGMP, mean ± SD (2000 μg, 0 D 02 H 00 M): 9.61 ± 3.65 nmol/L
cGMP, mean ± SD (2000 μg, 0 D 04 H 00 M): 14.01 ± 4.51 nmol/L
cGMP, mean ± SD (2000 μg, 0 D 06 H 00 M): 15.88 ± 5.09 nmol/L
cGMP, mean ± SD (2000 μg, 0 D 08 H 00 M): 16.52 ± 4.24 nmol/L
cGMP, mean ± SD (2000 μg, 0 D 12 H 00 M): 13.39 ± 4.01 nmol/L
cGMP, mean ± SD (2000 μg, 0 D 15 H 00 M): 12.38 ± 4.17 nmol/L
cGMP, mean ± SD (2000 μg, 1 D 00 H 00 M): 8.31 ± 2.88 nmol/L
cGMP, mean ± SD (2000 μg, 2 D 00 H 00 M): 6.40 ± 2.09 nmol/L
cGMP, mean ± SD (2000 μg, 3 D 00 H 00 M (trough)): 10.00 ± 3.51 nmol/L
cGMP, mean ± SD (2000 μg, 4 D 00 H 00 M (trough)): 14.17 ± 4.36 nmol/L
cGMP, mean ± SD (2000 μg, 5 D 00 H 00 M (trough)): 15.93 ± 5.52 nmol/L
cGMP, mean ± SD (2000 μg, 6 D 00 H 00 M (trough)): 16.54 ± 4.60 nmol/L
cGMP, mean ± SD (2000 μg, 7 D 00 H 00 M (trough)): 16.19 ± 5.02 nmol/L
cGMP, mean ± SD (2000 μg, 7 D 02 H 00 M): 22.17 ± 6.07 nmol/L
cGMP, mean ± SD (2000 μg, 7 D 04 H 00 M): 27.07 ± 7.01 nmol/L
cGMP, mean ± SD (2000 μg, 7 D 06 H 00 M): 32.22 ± 8.83 nmol/L
cGMP, mean ± SD (2000 μg, 7 D 08 H 00 M): 32.67 ± 9.48 nmol/L
cGMP, mean ± SD (2000 μg, 7 D 12 H 00 M): 28.17 ± 7.50 nmol/L
cGMP, mean ± SD (2000 μg, 7 D 15 H 00 M): 23.91 ± 6.59 nmol/L
cGMP, mean ± SD (2000 μg, 8 D 00 H 00 M): 16.00 ± 5.77 nmol/L
cGMP, mean ± SD (2000 μg, 8 D 12 H 00 M): 12.86 ± 3.96 nmol/L
cGMP, mean ± SD (2000 μg, 9 D 00 H 00 M): 10.48 ± 3.49 nmol/L
cGMP, mean ± SD (2000 μg, 9 D 12 H 00 M): 9.40 ± 3.10 nmol/L
cGMP, mean ± SD (2000 μg, 10 D 00 H 00 M): 8.09 ± 2.81 nmol/L
cGMP, mean ± SD (2000 μg, −0 D 09 H 00 M (baseline)): 3.98 ± 1.91 nmol/L
cyclic guanosine monophosphate changes from baseline (2000 μg, −0 D 09 H 00 M (pretreatment day)): -0.18 ± 0.90 nmol/L
cGMP, mean ± SD (2000 μg, −0 D 12 H 00 M (baseline)): 4.43 ± 2.24 nmol/L
cyclic guanosine monophosphate changes from baseline (2000 μg, −0 D 12 H 00 M (pretreatment day)): 0.28 ± 0.97 nmol/L
cGMP, mean ± SD (2000 μg, −0 D 16 H 00 M (baseline)): 4.44 ± 2.15 nmol/L
cyclic guanosine monophosphate changes from baseline (2000 μg, −0 D 16 H 00 M (pretreatment day)): 0.29 ± 1.17 nmol/L
cGMP, mean ± SD (2000 μg, −0 D 18 H 00 M (baseline)): 4.32 ± 1.33 nmol/L
cyclic guanosine monophosphate changes from baseline (2000 μg, −0 D 18 H 00 M (pretreatment day)): 0.17 ± 0.78 nmol/L
cGMP, mean ± SD (2000 μg, −0 D 20 H 00 M (baseline)): 4.63 ± 1.86 nmol/L
cyclic guanosine monophosphate changes from baseline (2000 μg, −0 D 20 H 00 M (pretreatment day)): 0.48 ± 0.71 nmol/L
cGMP, mean ± SD (2000 μg, −0 D 22 H 00 M (baseline)): 4.81 ± 2.22 nmol/L
cyclic guanosine monophosphate changes from baseline (2000 μg, −0 D 22 H 00 M (pretreatment day)): 0.66 ± 0.79 nmol/L
cGMP, mean ± SD (2000 μg, −1 D 02 H 00 M (baseline)): 4.16 ± 1.70 nmol/L
start of cGMP increase after first inhalation (480, 1000, 2000 μg): approximately 2 h
time of cGMP peak after administration (480 and 1000 μg dose): 6 h
mean peak cGMP (480 μg): 11.96 ± 2.80 nmol/L
mean peak cGMP (1000 μg): 16.70 ± 2.96 nmol/L
mean peak cGMP (2000 μg): 32.67 ± 9.48 nmol/L
peak mean±SD cGMP (480 μg): 8.84 ± 1.35 nmol/L
peak mean±SD cGMP (1000 μg): 11.69 ± 1.86 nmol/L
peak mean±SD cGMP (2000 μg): 16.52 ± 4.24 nmol/L
